# In US20170029355A1, “LABILE ESTERS OF AGROCHEMICALS FOR CONTROLLED RELEASE AND REDUCTION OF OFF-SITE MOVEMENT” (Monsanto Technology LLC, priority 2011, published 2017):
# Key:
# velvetleaf [1] = experiment: Field testing of emulsifiable concentrates, post-emergent control (Example 40); format: in vivo
# Procedure: (§1) Three dicamba esters, 30a, 32a, and 36a, were formulated as emulsifiable concentrates for field testing. All surfactants are commercial materials from Stepan.
# (§2) The formulations were tested in the field. Locations and timing were identical for the three esters, but differed slightly for the diglycolamine control. The esters were compared to the diglycolamine salt of dicamba (CLARITY™) for post-emergent control of three broadleaf weeds: velvetleaf, morning glory, and hemp sesbania. Rates of 280 and 560 g dicamba acid equivalent per hectare were used.
# morning glory = experiment: as above; format: in vivo
# Procedure: as §1, §2
# hemp sesbania = experiment: as above; format: in vivo
# Procedure: as §1, §2
# [2] = tested on: three broadleaf weeds: velvetleaf, morning glory, and hemp sesbania; experiment: Field testing of Example 40, overall post-emergent activity in words; format: in vivo; details: 280 and 560 g dicamba acid equivalent per hectare
# Procedure: as §1, §2
# soybeans = experiment: Humidome volatility injury, ester 32a emulsifiable concentrate (Example 32); details: humidome, dicamba 0.6% and glyphosate 1.2% acid equivalent, 14 days after treatment
# Text: […] The mixtures were sprayed at a 10 gallon per acre (93.5 liters per hectare) rate on soil in a plastic container (“humidome”) with a transparent lid. One soil container was sprayed with water as a control. Four glyphosate-tolerant, dicamba-sensitive soy plants between V2 and V3 stage were immediately placed on the sprayed soil and the domes attached to the trays with binder clips. The soy plants were in pots placed directly on the soil but with aluminum foil wrapped around the bottom to prevent uptake of dicamba or dicamba esters through the roots.
# The closed containers were held for 24 hours in a growth chamber which was maintained at 35° C. with 40% relative humidity. […] At this time plant injury and growth stage were assessed compared to the control treated with water only.
# velvetleaf [3] = experiment: Greenhouse post-emergent control of velvetleaf by emulsifiable concentrates (Example 37); format: in vivo
# Method in brief: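 Photo-labile dicamba ester emulsifiable concentrates sprayed post-emergence in the greenhouse on velvetleaf 10-15 cm tall at 140, 280, 420 and 560 g dicamba equivalent per hectare. Percent control scored three weeks after treatment.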
# broadleaf weeds = experiment: Control of broadleaf weeds by ester concentrates (statements of the description); format: in vivo; details: emulsifiable and suspension concentrates; Sesbania macrocarpa, morning glory, velvetleaf, Palmer amaranth, fat hen, sicklepod
# [4] = In vitro photo-release and hydrolytic release of dicamba in an aqueous medium (Example 35); format: physicochemical; details: 0.01 mM ester, 35° C.
# Procedure: This Example describes the determination of photo-lability and hydrolytic lability of dicamba esters in an aqueous medium. 1 mM solutions of the esters were prepared in acetonitrile (or […] solutions of dicamba diesters). The solutions were then diluted with deionized water to a concentration of 0.01 mM (or 0.005 mM for diesters). The solutions were then transferred to quartz tubes and amber bottles and held in a growth chamber by the procedure of Example 26. A 14-hour day was generally used at a constant temperature of 35° C. Hydrolytic activity was assessed by measuring the increase in dicamba concentration after day zero in the amber (dark) bottles. […] Photolysis manifested itself as increased conversion in the quartz tubes compared to the dark control.
# [5] = 280 g dicamba acid equivalent per hectare
# [6] = 560 g dicamba acid equivalent per hectare
smiles,measurement,setting,value
COc1c(Cl)ccc(Cl)c1C(=O)Oc1ccc(=O)n(CCC(C)=O)n1 [Ester 32a],"% control 19 days after treatment, 280 g/ha, Velvetleaf",velvetleaf [1]; [5],59 ± 28%
same,"% control 19 days after treatment, 560 g/ha, Velvetleaf",velvetleaf [1]; [6],68 ± 26%
same,"% control 19 days after treatment, 280 g/ha, Morning glory",morning glory; [5],70 ± 24%
same,"% control 19 days after treatment, 560 g/ha, Morning glory",morning glory; [6],87 ± 10%
same,"% control 19 days after treatment, 280 g/ha, Hemp sesbania",hemp sesbania; [5],76 ± 5%
same,"% control 19 days after treatment, 560 g/ha, Hemp sesbania",hemp sesbania; [6],91 ± 8%
same,"post-emergent activity compared with the dicamba salt, in words",[2],intermediate activity
same,average injury to soybeans,soybeans,19%
same,pest or weed control at 140 g/ha,"velvetleaf [3]; Abutilon theophrasti, post-emergence, 504 h, read-out: % Control of velvetleaf, 140 g/ha",12.5%
same,pest or weed control at 280 g/ha,"velvetleaf [3]; Abutilon theophrasti, post-emergence, 504 h, read-out: % Control of velvetleaf, 280 g/ha",19.2%
same,pest or weed control at 420 g/ha,"velvetleaf [3]; Abutilon theophrasti, post-emergence, 504 h, read-out: % Control of velvetleaf, 420 g/ha",33.3%
same,pest or weed control at 560 g/ha,"velvetleaf [3]; Abutilon theophrasti, post-emergence, 504 h, read-out: % Control of velvetleaf, 560 g/ha",37.5%
same,"post-emergent efficacy on velvetleaf compared with the salt, in words","velvetleaf [3]; greenhouse, emulsifiable concentrates",reduced post-emergent efficacy
same,"control of a number of broadleaf weeds in field testing, in words",broadleaf weeds,proven effective
same,"Conversion to Dicamba, Dark, Day 0","[4]; amber (dark) bottle, Day 0",5%
same,"Conversion to Dicamba, Dark, Day 1","[4]; amber (dark) bottle, Day 1",12%
same,"Conversion to Dicamba, Dark, Day 2","[4]; amber (dark) bottle, Day 2",14%
same,"Conversion to Dicamba, Dark, Day 3","[4]; amber (dark) bottle, Day 3",17%
same,"Conversion to Dicamba, Dark, Day 4","[4]; amber (dark) bottle, Day 4",22%
same,"Conversion to Dicamba, Dark, Day 7","[4]; amber (dark) bottle, Day 7",34%
same,"Conversion to Dicamba, Dark, Day 14","[4]; amber (dark) bottle, Day 14",41%
same,"Conversion to Dicamba, Dark, Day 21","[4]; amber (dark) bottle, Day 21",55%
same,"Conversion to Dicamba, Dark, Day 28","[4]; amber (dark) bottle, Day 28",70%
same,"Conversion to Dicamba, Light, Day 0","[4]; quartz tube, 14-hour day, Day 0",5%
same,"Conversion to Dicamba, Light, Day 1","[4]; quartz tube, 14-hour day, Day 1",14%
same,"Conversion to Dicamba, Light, Day 2","[4]; quartz tube, 14-hour day, Day 2",16%
same,"Conversion to Dicamba, Light, Day 3","[4]; quartz tube, 14-hour day, Day 3",18%
same,"Conversion to Dicamba, Light, Day 4","[4]; quartz tube, 14-hour day, Day 4",22%
same,"Conversion to Dicamba, Light, Day 7","[4]; quartz tube, 14-hour day, Day 7",27%
same,"Conversion to Dicamba, Light, Day 14","[4]; quartz tube, 14-hour day, Day 14",44%
same,"Conversion to Dicamba, Light, Day 21","[4]; quartz tube, 14-hour day, Day 21",50%
same,"Conversion to Dicamba, Light, Day 28","[4]; quartz tube, 14-hour day, Day 28",59%
